In ChEMBL document CHEMBL4483862, “Open-source discovery of chemical leads for next-generation chemoprotective antimalarials” (2018):

Tested on: Plasmodium berghei
Assay: Luciferase/luciferin-expressing antifolate-resistant parasites were used to infect a culture of HepG2 cells that were pre-incubated with compounds. Infected hepatocytes emit light due to the luciferase reaction. Assay results are presented as the percent inhibition of light emission compared to control. […]
Format: functional
Details: sporozoite; for IC90: read-out: LUCIFERASE INFECTION ASSAY - IC90

SMILES | IC90 | further results
O=C(c1cccs1)N1CCN(C2c3ccccc3-c3ccccc32)CC1 | > 9.15 µM | IC50 (PBLUC_HILL_SLOPE 11.4, PBLUC_R_SQUARED 0.0886, read-out: LUCIFERASE INFECTION ASSAY - IC50): > 9.15 µM
CCc1ccc(C(CNC(=O)c2ccc3c(=O)n(-c4ccccc4F)c(=S)[nH]c3c2)N(C)C)cc1 (stereo not given) | > 10 µM | IC50 (PBLUC_HILL_SLOPE 11.1, PBLUC_R_SQUARED 0.257, read-out: LUCIFERASE INFECTION ASSAY - IC50): 9.21 µM
CCN1CCN(c2ccc(S(=O)(=O)N3CCOCC3)cc2NC(=O)/C=C/c2ccc([N+](=O)[O-])cc2)CC1 | > 10 µM | IC50 (PBLUC_HILL_SLOPE 11, PBLUC_R_SQUARED 0.478, read-out: LUCIFERASE INFECTION ASSAY - IC50): 8.35 µM
COc1ccc(-c2cn3c(-c4ccc(OC)nc4)cnc3cn2)cn1 | > 9.9 µM | IC50 (PBLUC_HILL_SLOPE 11.1, PBLUC_R_SQUARED 0.0252, read-out: LUCIFERASE INFECTION ASSAY - IC50): 9.58 µM
O=C(Nc1ccc(OC(F)(F)F)cc1)Nc1cc(-c2ccccc2)n[nH]1 | 4.02 µM | IC50 (PBLUC_HILL_SLOPE 11.1, PBLUC_R_SQUARED 0.558, read-out: LUCIFERASE INFECTION ASSAY - IC50): 3.3 µM
COc1ccc(-c2cnc3cnc(-c4ccc(CO)cc4)cn23)cc1 | 9.11 µM | IC50 (PBLUC_HILL_SLOPE 11.2, PBLUC_R_SQUARED 0.457, read-out: LUCIFERASE INFECTION ASSAY - IC50): 7.48 µM
CSc1nc2ccccc2c(=O)n1-c1c(C)cccc1C | > 11.1 µM | IC50 (PBLUC_HILL_SLOPE 11.2, PBLUC_R_SQUARED 0.357, read-out: LUCIFERASE INFECTION ASSAY - IC50): 10.5 µM
Nc1nc(C2COc3ccccc3O2)ncc1S(=O)(=O)c1ccc(Cl)cc1 (stereo not given) | > 8.17 µM | IC50 (PBLUC_HILL_SLOPE 11.1, PBLUC_R_SQUARED 0.295, read-out: LUCIFERASE INFECTION ASSAY - IC50): 7.39 µM
CSc1nc(Sc2nnc(-c3ccc(C(C)(C)C)cc3)[nH]2)cc(Sc2nnc(-c3ccc(C(C)(C)C)cc3)[nH]2)n1 | > 5.6 µM | IC50 (PBLUC_HILL_SLOPE 11.3, PBLUC_R_SQUARED 0.117, read-out: LUCIFERASE INFECTION ASSAY - IC50): 5.38 µM
COc1ccc(-c2cnc3cnc(-c4ccc(C(=O)NC5CCCC5)cc4)cn23)cc1 | 7.76 µM | IC50 (PBLUC_HILL_SLOPE 11.3, PBLUC_R_SQUARED 0.296, read-out: LUCIFERASE INFECTION ASSAY - IC50): 6.39 µM
NC(c1ccccc1)c1csc(Nc2ccc(-c3ccccc3)nn2)n1 (stereo not given) | 3.73 µM | IC50 (PBLUC_HILL_SLOPE 11.1, PBLUC_R_SQUARED 0.371, read-out: LUCIFERASE INFECTION ASSAY - IC50): 3.06 µM
Cc1sc2nc(-c3cccnc3)nc(N3CCN(S(=O)(=O)/C=C/c4ccccc4)CC3)c2c1C | > 10 µM | IC50 (PBLUC_HILL_SLOPE 11.2, PBLUC_R_SQUARED 0.469, read-out: LUCIFERASE INFECTION ASSAY - IC50): 8.64 µM
CCOC(=O)c1c(C)nc(-c2ccco2)nc1SCc1ncc(-c2ccc(F)cc2)o1 | 3.58 µM | IC50 (PBLUC_HILL_SLOPE 11.1, PBLUC_R_SQUARED 0.631, read-out: LUCIFERASE INFECTION ASSAY - IC50): 2.94 µM
CCN1C(=O)N(C2Cc3ccccc3C2)C(=O)C12CCN(Cc1ccc(-c3ccco3)cc1)CC2 | > 7.03 µM | IC50 (PBLUC_HILL_SLOPE 11.2, PBLUC_R_SQUARED 0.677, read-out: LUCIFERASE INFECTION ASSAY - IC50): 6.46 µM
COc1cc(OC)c(C2=CCN(c3cc(=O)n4ccccc4n3)CC2)c(OC)c1 | > 10 µM | IC50 (PBLUC_HILL_SLOPE 11.4, PBLUC_R_SQUARED 0.492, read-out: LUCIFERASE INFECTION ASSAY - IC50): 9.03 µM
COc1ccc(-c2cnc3cnc(-c4ccc(OC(F)(F)F)cc4)cn23)cn1 | > 8.54 µM | IC50 (PBLUC_HILL_SLOPE 11.4, PBLUC_R_SQUARED 0.148, read-out: LUCIFERASE INFECTION ASSAY - IC50): > 8.54 µM
CN(C)c1ccc(NC(=O)N2[C@@H]3CC[C@@H](C3)[C@H]2c2nc3cccc(OCc4ccc(F)cc4)c3[nH]2)cc1 | > 10 µM | IC50 (PBLUC_HILL_SLOPE 11.3, PBLUC_R_SQUARED 0.0257, read-out: LUCIFERASE INFECTION ASSAY - IC50): > 10 µM
CN(C)C(=O)c1cccc(-c2cn3c(-c4ccc(CO)cc4)cnc3cn2)c1 | > 8.86 µM | IC50 (PBLUC_HILL_SLOPE 11.4, PBLUC_R_SQUARED 0.237, read-out: LUCIFERASE INFECTION ASSAY - IC50): 8.26 µM
COC(=O)c1ccc2c(=O)nc(CN3CCc4sccc4C3C)[nH]c2c1 (stereo not given) | > 10 µM | IC50 (PBLUC_HILL_SLOPE 11, PBLUC_R_SQUARED 0.235, read-out: LUCIFERASE INFECTION ASSAY - IC50): > 10 µM
CCS(=O)(=O)N1CCC(C(=O)N(Cc2ccccc2)c2nc(-c3ccc(F)cc3)cs2)CC1 | > 10 µM | IC50 (PBLUC_HILL_SLOPE 11.3, PBLUC_R_SQUARED 0.297, read-out: LUCIFERASE INFECTION ASSAY - IC50): 8.84 µM

SMILES | IC90 | further results
Cc1ccc(SCc2cc(=O)n3nc(C)c(-c4ccccc4)c3[nH]2)cc1 | > 9.13 µM | IC50 (PBLUC_HILL_SLOPE 11, PBLUC_R_SQUARED 0.259, read-out: LUCIFERASE INFECTION ASSAY - IC50): 7.6 µM
CC1Sc2ccc(Cl)cc2C(=O)/C1=C/c1ccc(C(F)(F)F)cc1 (stereo not given) | > 8.95 µM | IC50 (PBLUC_HILL_SLOPE 11.4, PBLUC_R_SQUARED 0.0512, read-out: LUCIFERASE INFECTION ASSAY - IC50): > 8.95 µM
CCn1c2ccccc2c2cc(NC(=O)COC(=O)Cc3cccs3)ccc21 | > 10 µM | IC50 (PBLUC_HILL_SLOPE 11.3, PBLUC_R_SQUARED 0.588, read-out: LUCIFERASE INFECTION ASSAY - IC50): 9.26 µM
Cc1ccc(C(NCC(=O)Nc2cc(S(C)(=O)=O)ccc2Cl)c2ccccc2)cc1C (stereo not given) | 4.49 µM | IC50 (PBLUC_HILL_SLOPE 11.2, PBLUC_R_SQUARED 0.465, read-out: LUCIFERASE INFECTION ASSAY - IC50): 3.69 µM
Cn1c(SCC(=O)NC2CCCc3ccccc32)nnc1-c1cccnc1 (stereo not given) | > 10 µM | IC50 (PBLUC_HILL_SLOPE 11.1, PBLUC_R_SQUARED 0.239, read-out: LUCIFERASE INFECTION ASSAY - IC50): 8.8 µM
O=C(Nc1cccc(Oc2cnccn2)c1)C(c1ccccc1)c1ccccc1 | > 10 µM | IC50 (PBLUC_HILL_SLOPE 11.4, PBLUC_R_SQUARED 0.171, read-out: LUCIFERASE INFECTION ASSAY - IC50): 8.47 µM
O=C(CNc1cccc(S(=O)(=O)N2CCCCC2)c1)NC(=O)NC1CCCCC1 | > 10 µM | IC50 (PBLUC_HILL_SLOPE 11, PBLUC_R_SQUARED 0.0354, read-out: LUCIFERASE INFECTION ASSAY - IC50): 9.65 µM
Cn1cc(-c2cc(-c3cccc4ccccc34)cnc2N)cn1 | > 11 µM | IC50 (PBLUC_HILL_SLOPE 11.1, PBLUC_R_SQUARED 0.24, read-out: LUCIFERASE INFECTION ASSAY - IC50): 10.4 µM
CCc1ccc(Cl)c(CC)c1NC(=O)Cc1c(C)nn(CC(C)C)c1C | 4.06 µM | IC50 (PBLUC_HILL_SLOPE 11.4, PBLUC_R_SQUARED 0.518, read-out: LUCIFERASE INFECTION ASSAY - IC50): 3.35 µM
Cc1c(C)c(C)c(S(=O)(=O)Nc2ccc(Oc3ccc(Cl)cc3)cc2)c(C)c1C | > 7.68 µM | IC50 (PBLUC_HILL_SLOPE 11, PBLUC_R_SQUARED 0.0118, read-out: LUCIFERASE INFECTION ASSAY - IC50): > 7.68 µM
NS(=O)(=O)c1ccc(CNC(=O)Cn2cnc3ccccc3c2=O)cc1 | > 8.86 µM | IC50 (PBLUC_HILL_SLOPE 11.1, PBLUC_R_SQUARED 0.12, read-out: LUCIFERASE INFECTION ASSAY - IC50): > 8.86 µM
COc1ccc(NC(=O)c2cccc(S(=O)(=O)N(Cc3ccccc3)c3ccccc3Cl)c2)cn1 | > 10 µM | IC50 (PBLUC_HILL_SLOPE 11, PBLUC_R_SQUARED 0.0841, read-out: LUCIFERASE INFECTION ASSAY - IC50): 9.79 µM
COC(=O)c1ccc(=O)n(CC(=O)Nc2ccc(C(C)(C)C)cc2)c1 | > 10 µM | IC50 (PBLUC_HILL_SLOPE 11, PBLUC_R_SQUARED 0.594, read-out: LUCIFERASE INFECTION ASSAY - IC50): 9.09 µM
CCC(C)c1ccc(NC(=O)Cc2ccc(NS(=O)(=O)c3ccc(Cl)c(Cl)c3)cc2)cc1 (stereo not given) | > 10 µM | IC50 (PBLUC_HILL_SLOPE 11.4, PBLUC_R_SQUARED 0.218, read-out: LUCIFERASE INFECTION ASSAY - IC50): 9.54 µM
C=CCn1c(-c2ccccc2)c(C)sc1=Nc1ccc(Cl)cc1 | > 10 µM | IC50 (PBLUC_HILL_SLOPE 11.2, PBLUC_R_SQUARED 0.0711, read-out: LUCIFERASE INFECTION ASSAY - IC50): 9.93 µM
O=C(COC(=O)c1ccc2[nH]c3c(c2c1)CCCC3)c1ccc2c(c1)OCCO2 | 9.92 µM | IC50 (PBLUC_HILL_SLOPE 11.3, PBLUC_R_SQUARED 0.654, read-out: LUCIFERASE INFECTION ASSAY - IC50): 8.17 µM
O=C(CSc1nnc(-c2ccccc2)[nH]1)N1c2ccccc2OCC1c1ccccc1 (stereo not given) | > 10 µM | IC50 (PBLUC_HILL_SLOPE 11.0, 1.31, PBLUC_R_SQUARED 0.138, 0.609, read-out: LUCIFERASE INFECTION ASSAY - IC50): 6.33 µM
CNc1nnc(Sc2ncnc3ccsc23)s1 | 9.41 µM | IC50 (PBLUC_HILL_SLOPE 11, PBLUC_R_SQUARED 0.35, read-out: LUCIFERASE INFECTION ASSAY - IC50): 7.71 µM
COc1ccc(-c2cnc3cnc(-c4cccc(C(=O)NCCO)c4)cn23)cn1 | > 8.47 µM | IC50 (PBLUC_HILL_SLOPE 11.3, PBLUC_R_SQUARED 0.241, read-out: LUCIFERASE INFECTION ASSAY - IC50): 8.2 µM
Cc1nc(-c2ccccn2)nc(NCc2ccccc2)c1Cl | 9.83 µM | IC50 (PBLUC_HILL_SLOPE 11, PBLUC_R_SQUARED 0.469, read-out: LUCIFERASE INFECTION ASSAY - IC50): 8.06 µM
